From patent US12139492B2 (Endotarget Inc., priority 2021, dated 2024)
Read-outs that look alike come from different tables or passages of the source.

Key:
[1] = molecular target: BTK (Homo sapiens, UniProt Q06187); experiment: Degradation of BTK protein in Namalwa cells (Western blot; DC50, Dmax); conditions: for DC50: cell line not given
[2] = system: JeKo-1 cells; experiment: Antiproliferative effect, MTS cell viability assay, JeKo-1 cells; format: cell-based; conditions: Homo sapiens; JeKo-1 mantle cell lymphoma cells; read-out: IC50 (anti-proliferation) JeKO-1 cells
Summary of the method: (§1)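 Mino and JeKo-1 mantle B-cell lymphoma lines were exposed to compound at 0, 0.001, 0.01, 0.1, 1 and 10 μM for 72 h. Viability was read by MTS reduction to formazan, measured as absorbance at 490 nm.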

[3] = system: Mino cells; experiment: Antiproliferative effect, MTS cell viability assay, Mino cells; format: cell-based; conditions: Homo sapiens, MINO, Mino mantle cell lymphoma cells; read-out: IC50 (anti-proliferation) Mino cells
Summary of the method: as §1

[4] = read-out: DC50 (BTK degradation), concentration giving 50% reduction of BTK expression level
[5] = read-out: Dmax (BTK degradation)

Chain of BTK (Q06187 whole entry): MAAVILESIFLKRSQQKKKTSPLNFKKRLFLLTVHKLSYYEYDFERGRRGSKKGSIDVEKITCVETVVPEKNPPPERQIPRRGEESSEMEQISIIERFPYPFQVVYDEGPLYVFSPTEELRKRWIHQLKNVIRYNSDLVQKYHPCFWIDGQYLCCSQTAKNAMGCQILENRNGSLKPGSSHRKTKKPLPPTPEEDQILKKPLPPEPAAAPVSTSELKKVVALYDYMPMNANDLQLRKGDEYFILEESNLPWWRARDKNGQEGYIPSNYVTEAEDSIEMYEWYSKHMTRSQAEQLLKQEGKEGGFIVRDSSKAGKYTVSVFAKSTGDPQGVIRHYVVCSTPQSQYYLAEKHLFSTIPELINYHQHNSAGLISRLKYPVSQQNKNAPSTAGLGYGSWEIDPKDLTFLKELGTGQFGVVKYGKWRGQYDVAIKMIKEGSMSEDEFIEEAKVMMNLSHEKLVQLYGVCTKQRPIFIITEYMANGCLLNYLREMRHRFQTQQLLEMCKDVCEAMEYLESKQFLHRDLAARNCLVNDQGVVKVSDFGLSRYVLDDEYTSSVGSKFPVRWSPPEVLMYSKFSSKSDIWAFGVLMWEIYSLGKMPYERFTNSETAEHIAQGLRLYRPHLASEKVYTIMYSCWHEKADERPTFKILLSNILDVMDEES

Row | Structure (SMILES) | DC50 [1, 4] [µM] | Dmax [1, 5] [%] | Dmax [1] [%] | DC50 ([1]; BTK degradation) [µM] | degradation of BTK protein ([1]; Namalwa B lymphocyte cells, various concentrations, 24 hours, Western blot) | IC50 [2] [µM] | IC50 [3] [µM]
1 | Nc1ncnc2c1c(-c1ccc(Oc3ccccc3)cc1)nn2C1CCN(C2CCN(CCCN3CCN(c4ccc(N5CCC(=O)NC5=O)cc4)CC3)C2)CC1 (centres unmarked) [Compound 577, 1-(4-(4-(3-(3-(4-(4-amino-3-(4-phenoxyphenyl)-1H-pyrazolo[3,4-d]pyrimidin-1-yl)piperidin-1-yl)pyrrolidin-1-yl)propyl)piperazin-1-yl)phenyl)dihydropyrimidine-2,4(1H,3H)-dione] | < 0.01 | > 90 | – | – | – | 1 to 10 | 1 to 10
2 | NC(=O)c1c(-c2ccc(Oc3ccccc3)cc2)nn2c1NCC[C@H]2C1CCN(C2CCN(C(=O)N3CCC(CC4CCN(c5ccc6c(c5)CN(C5CCC(=O)NC5=O)C6=O)CC4)CC3)CC2)CC1 (stereo partly drawn) [Compound 394, (7S)-7-(1′-(4-((1-(2-(2,6-dioxopiperidin-3-yl)-1-oxoisoindolin-5-yl)piperidin-4-yl)methyl)piperidine-1-carbonyl)-[1,4′-bipiperidin]-4-yl)-2-(4-phenoxyphenyl)-4,5,6,7-tetrahydropyrazolo[1,5-a]pyrimidine-3-carboxamide] | 0.01 to 0.05 | > 75 | – | – | – | 1 to 10 | < 1
3 | Nc1ncnc2c1c(-c1ccc(Oc3ccccc3)cc1)nn2C1CCN(C2CCN(CC3CN(CC4CN(c5ccc6c(c5)CN(C5CCC(=O)NC5=O)C6=O)C4)C3)CC2)CC1 (centres unmarked) [Compound 438, 3-(5-(3-((3-((4-(4-amino-3-(4-phenoxyphenyl)-1H-pyrazolo[3,4-d]pyrimidin-1-yl)-[1,4′-bipiperidin]-1′-yl)methyl)azetidin-1-yl)methyl)azetidin-1-yl)-1-oxoisoindolin-2-yl)piperidin-2,6-dione] | 0.01 to 0.05 | > 90 | – | – | – | 1 to 10 | 1 to 10
4 | NC(=O)c1c(-c2ccc(Oc3ccccc3)cc2)nn2c1NCCC2C1CCN(CC2CCN(C(=O)N3CCC(CC4CCN(c5ccc6c(c5)CN(C5CCC(=O)NC5=O)C6=O)CC4)CC3)CC2)CC1 (centres unmarked) [Compound 374, 7-(1-((1-(4-((1-(2-(2,6-dioxopiperidin-3-yl)-1-oxoisoindolin-5-yl)piperidin-4-yl)methyl)piperidine-1-carbonyl)piperidin-4-yl)methyl)piperidin-4-yl)-2-(4-phenoxyphenyl)-4,5,6,7-tetrahydropyrazolo[1,5-a]pyrimidine-3-carboxamide] | – | – | > 75 | 0.01 to 0.05 | – | > 10 | 1 to 10
5 | NC(=O)c1c(-c2ccc(Oc3ccccc3)cc2)nn2c1NCCC2C1CCN(C2CCN(CC3CCN(c4ccc5c(c4)CN(C4CCC(=O)NC4=O)C5=O)CC3)CC2)CC1 (centres unmarked) [Compound 306, 7-(1′-((1-(2-(2,6-dioxopiperidin-3-yl)-1-oxoisoindolin-5-yl)piperidin-4-yl)methyl)-[1,4′-bipiperidin]-4-yl)-2-(4-phenoxyphenyl)-4,5,6,7-tetrahydropyrazolo[1,5-a]pyrimidine-3-carboxamide] | – | – | > 90 | 0.01 to 0.05 | – | 1 to 10 | 1 to 10
6 | NC(=O)c1c(-c2ccc(Oc3ccccc3)cc2)nn2c1NCCC2C1CCN(CC2CCN(CCC3CCN(c4ccc5c(c4)C(=O)N(C4CCC(=O)NC4=O)C5=O)CC3)CC2)CC1 (centres unmarked) [Compound 317, 7-(1-((1-(2-(1-(2-(2,6-dioxopiperidin-3-yl)-1,3-dioxoisoindolin-5-yl)piperidin-4-yl)ethyl)piperidin-4-yl)methyl)piperidin-4-yl)-2-(4-phenoxyphenyl)-4,5,6,7-tetrahydropyrazolo[1,5-a]pyrimidine-3-carboxamide] | – | – | > 75 | > 0.05 | – | > 10 | 1 to 10
7 | Nc1ncnc2c1c(-c1ccc(Oc3ccccc3)cc1)nn2C1CCN(CCOCCOCCN2CC=C(c3ccc4c(c3)CN(C3CCC(=O)NC3=O)C4=O)CC2)CC1 (centres unmarked) [Compound 417, 3-(5-(1-(2-(2-(2-(4-(4-amino-3-(4-phenoxyphenyl)-1H-pyrazolo[3,4-d]pyrimidin-1-yl)piperidin-1-yl)ethoxy)ethoxy)ethyl)-1,2,3,6-tetrahydropyridin-4-yl)-1-oxoisoindolin-2-yl)piperidine-2,6-dione] | 0.01 to 0.05 | > 75 | – | – | dose-dependent degradation | 1 to 10 | 1 to 10
8 | Nc1ncnc2c1c(-c1ccc(Oc3ccccc3)cc1)nn2C1CCN(C2CCN(CCCCC#Cc3ccc(N4CCC(=O)NC4=O)cc3)CC2)CC1 [Compound 535, 1-(4-(6-(4-(4-amino-3-(4-phenoxyphenyl)-1H-pyrazolo[3,4-d]pyrimidin-1-yl)-[1,4′-bipiperidin]-1′-yl)hex-1-yn-1-yl)phenyl)dihydropyrimidine-2,4(1H,3H)-dione] | > 0.05 | > 50 | – | – | – | > 10 | > 10
9 | NC(=O)c1c(-c2ccc(Oc3ccccc3)cc2)nn2c1NCCC2C1CCN(CC2CCN(C(=O)N3CCN(c4ccc5c(c4)CN(C4CCC(=O)NC4=O)C5=O)CC3)CC2)CC1 (centres unmarked) [Compound 358, 7-(1-((1-(4-(2-(2,6-dioxopiperidin-3-yl)-1-oxoisoindolin-5-yl)piperazine-1-carbonyl)piperidin-4-yl)methyl)piperidin-4-yl)-2-(4-phenoxyphenyl)-4,5,6,7-tetrahydropyrazolo[1,5-a]pyrimidine-3-carboxamide] | – | – | > 50 | > 0.05 | – | > 10 | > 10
10 | NC(=O)c1c(-c2ccc(Oc3ccccc3)cc2)nn2c1NCC[C@H]2C1CCN(CC2CCN(C(=O)N3CCC(N4CCC(c5ccc6c(c5)CN(C5CCC(=O)NC5=O)C6=O)CC4)CC3)CC2)CC1 (stereo partly drawn) [Compound 408, (7S)-7-(1-((1-(4-(2-(2,6-dioxopiperidin-3-yl)-1-oxoisoindolin-5-yl)-[1,4′-bipiperidine]-1′-carbonyl)piperidin-4-yl)methyl)piperidin-4-yl)-2-(4-phenoxyphenyl)-4,5,6,7-tetrahydropyrazolo[1,5-a]pyrimidine-3-carboxamide] | 0.01 to 0.05 | > 75 | – | – | – | 1 to 10 | > 10

Further lines, with some results ahead:

Row | DC50 [1, 4] [µM] | Dmax [1, 5] [%] | Dmax [1] [%] | DC50 ([1]; BTK degradation) [µM] | degradation of BTK protein ([1]; Namalwa B lymphocyte cells, various concentrations, 24 hours, Western blot) | Structure (SMILES) | IC50 [2] [µM] | IC50 [3] [µM]
11 | – | – | > 50 | > 0.05 | – | Nc1ncnc2c1c(-c1ccc(Oc3ccccc3)cc1)nn2C1CCN(C2CCN(C(=O)N3CCN(c4ccc5c(c4)CN(C4CCC(=O)NC4=O)C5=O)CC3)CC2)CC1 (centres unmarked) [Compound 230, 3-(5-(4-(4-(4-amino-3-(4-phenoxyphenyl)-1H-pyrazolo[3,4-d]pyrimidin-1-yl)-[1,4′-bipiperidine]-1′-carbonyl)piperazin-1-yl)-1-oxoisoindolin-2-yl)piperidine-2,6-dione] | 1 to 10 | 1 to 10
12 | – | – | > 90 | 0.01 to 0.05 | – | Nc1ncnc2c1c(-c1ccc(Oc3ccccc3)cc1)nn2C1CCN(C2CCN(C(=O)N3CCC(N4CCN(c5ccc6c(c5)C(=O)N(C5CCC(=O)NC5=O)C6=O)CC4)CC3)CC2)CC1 (centres unmarked) [Compound 231, 5-(4-(1-(4-(4-amino-3-(4-phenoxyphenyl)-1H-pyrazolo[3,4-d]pyrimidin-1-yl)-[1,4′-bipiperidine]-1′-carbonyl)piperidin-4-yl)piperazin-1-yl)-2-(2,6-dioxopiperidin-3-yl)isoindoline-1,3-dione] | 1 to 10 | 1 to 10
13 | – | – | > 75 | 0.01 to 0.05 | – | Nc1ncnc2c1c(-c1ccc(Oc3ccccc3)cc1)nn2C1CCN(C2CCN(C(=O)N3CCC(CCCC4CCN(c5ccc6c(c5)C(=O)N(C5CCC(=O)NC5=O)C6=O)CC4)CC3)CC2)CC1 (centres unmarked) [Compound 265, 5-(4-(3-(1-(4-(4-amino-3-(4-phenoxyphenyl)-1H-pyrazolo[3,4-d]pyrimidin-1-yl)-[1,4′-bipiperidine]-1′-carbonyl)piperidin-4-yl)propyl)piperidin-1-yl)-2-(2,6-dioxopiperidin-3-yl)isoindoline-1,3-dione] | 1 to 10 | 1 to 10
14 | > 0.05 | > 90 | – | – | – | Nc1ncnc2c1c(-c1ccc(Oc3ccccc3)cc1)nn2C1CCN(C[C@@H]2CCN(CC3CN(CC4CN(c5ccc6c(c5)C(=O)N(C5CCC(=O)NC5=O)C6=O)C4)C3)C2)CC1 (stereo partly drawn) [Compound 427b, 5-(3-((3-(((S)-3-((4-(4-amino-3-(4-phenoxyphenyl)-1H-pyrazolo[3,4-d]pyrimidin-1-yl)piperidin-1-yl)methyl)pyrrolidin-1-yl)methyl)azetidin-1-yl)methyl)azetidin-1-yl)-2-(2,6-dioxopiperidin-3-yl)isoindoline-1,3-dione] | 1 to 10 | 1 to 10
15 | < 0.01 | > 90 | – | – | – | Nc1ncnc2c1c(-c1ccc(Oc3ccccc3)cc1)nn2[C@@H]1CCCN(C(=O)N2CC(N3CCN(c4ccc5c(c4)C(=O)N(C4CCC(=O)NC4=O)C5=O)CC3)C2)C1 (stereo partly drawn) [Compound 487, 5-(4-(1-((R)-3-(4-amino-3-(4-phenoxyphenyl)-1H-pyrazolo[3,4-d]pyrimidin-1-yl)piperidine-1-carbonyl)azetidin-3-yl)piperazin-1-yl)-2-(2,6-dioxopiperidin-3-yl)isoindoline-1,3-dione] | < 1 | < 1
16 | < 0.01 | > 90 | – | – | – | Nc1ncnc2c1c(-c1ccc(Oc3ccccc3)cc1)nn2C1CCC(CN2CC(N3CCN(c4ccc5c(c4)CN(C4CCC(=O)NC4=O)C5=O)CC3)C2)CC1 (centres unmarked) [Compound 533, 3-(5-(4-(1-((4-(4-amino-3-(4-phenoxyphenyl)-1H-pyrazolo[3,4-d]pyrimidin-1-yl)cyclohexyl)methyl)azetidin-3-yl)piperazin-1-yl)-1-oxoisoindolin-2-yl)piperidine-2,6-dione] | < 1 | < 1
